# Test results from ChEMBL document CHEMBL1201862, “PubChem BioAssay data set” (2004).
#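 Method: 48-hour compound exposure of cells in 96-well plates, five concentrations, linear interpolation of endpoints. Here, GI50 denotes the concentration required for 50% inhibition of growth.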 Active and inactive are the calls of the source. No stated cut-off is given here; in the data, active = GI50 up to about 1.1 µM and inactive = higher.
# Tests used:
# Assay in all cases: growth of human tumour cells (NCI), 48 h
# A498 = tested on: A498
# HOP-62 = tested on: HOP-62
# NCI-H226 = tested on: NCI-H226
# MOLT-4 = tested on: MOLT-4
# KM12 = tested on: KM12
# SNB-75 = tested on: SNB-75
# ACHN = tested on: ACHN
# UACC-62 = tested on: UACC-62
# SN12C = tested on: SN12C
# LOX IMVI = tested on: LOX IMVI
# K562 = tested on: K562
# M19-MEL = tested on: M19-MEL
# RXF 393 = tested on: RXF 393
# HOP-92 = tested on: HOP-92
# IGROV-1 = tested on: IGROV-1
# M14 = tested on: M14
# NCI-H460 = tested on: NCI-H460
# HT-29 = tested on: HT-29
# SK-MEL-5 = tested on: SK-MEL-5
# OVCAR-4 = tested on: OVCAR-4
# SK-MEL-28 = tested on: SK-MEL-28
# DLD-1 = tested on: DLD-1
# NCI-H23 = tested on: NCI-H23
# SF-268 = tested on: SF-268
# XF498 = tested on: XF498
# SK-OV-3 = tested on: SK-OV-3
# SR = tested on: SR
# OVCAR-3 = tested on: OVCAR-3
# RXF 631 = tested on: RXF 631
# TK-10 = tested on: TK-10
# OVCAR-8 = tested on: OVCAR-8
# A549 = tested on: A549
# U-251 = tested on: U-251
# SNB-19 = tested on: SNB-19
# Malme-3M = tested on: Malme-3M
# SW-620 = tested on: SW-620
# OVCAR-5 = tested on: OVCAR-5
# HCT-15 = tested on: HCT-15
# KM-20L2 = tested on: KM-20L2
# HCT-116 = tested on: HCT-116
# EKVX = tested on: EKVX
# HOP-18 = tested on: HOP-18
# NCI-H522 = tested on: NCI-H522
# SF-539 = tested on: SF-539
# SK-MEL-2 = tested on: SK-MEL-2
# HL-60 = tested on: HL-60
# CCRF-CEM = tested on: CCRF-CEM
# DMS-114 = tested on: DMS-114
# LXFL 529 = tested on: LXFL 529
# SF-295 = tested on: SF-295
# CAKI-1 = tested on: CAKI-1
# COLO 205 = tested on: COLO 205
# UO-31 = tested on: UO-31
# DMS-273 = tested on: DMS-273
# UACC-257 = tested on: UACC-257
# 786-0 = tested on: 786-0
structure (smiles),measurement,setting,value
CCOC(=O)C(=Cc1cccnc1C)C(=O)OCC,GI50,A498,10.9 µM (inactive)
same,GI50,HOP-62,18.8 µM (inactive)
same,GI50,NCI-H226,31.8 µM (inactive)
same,GI50,MOLT-4,12.6 µM (inactive)
same,GI50,KM12,3.1 µM (inactive)
same,GI50,SNB-75,3.13 µM (inactive)
same,GI50,ACHN,11.9 µM (inactive)
same,GI50,UACC-62,6.82 µM (inactive)
same,GI50,SN12C,4.43 µM (inactive)
same,GI50,LOX IMVI,3.71 µM (inactive)
same,GI50,K562,3.39 µM (inactive)
same,GI50,M19-MEL,7.91 µM (inactive)
same,GI50,RXF 393,4.35 µM (inactive)
same,GI50,HOP-92,7.01 µM (inactive)
same,GI50,IGROV-1,7.6 µM (inactive)
same,GI50,M14,11.2 µM (inactive)
same,GI50,NCI-H460,15.6 µM (inactive)
same,GI50,HT-29,5.15 µM (inactive)
same,GI50,SK-MEL-5,11.8 µM (inactive)
same,GI50,OVCAR-4,11 µM (inactive)
same,GI50,SK-MEL-28,17.5 µM (inactive)
same,GI50,DLD-1,9.27 µM (inactive)
same,GI50,NCI-H23,4.09 µM (inactive)
same,GI50,SF-268,9.89 µM (inactive)
same,GI50,XF498,12.6 µM (inactive)
same,GI50,SK-OV-3,11.3 µM (inactive)
same,GI50,SR,3.61 µM (inactive)
same,GI50,OVCAR-3,2.67 µM (inactive)
same,GI50,RXF 631,11.9 µM (inactive)
same,GI50,TK-10,12.9 µM (inactive)
same,GI50,OVCAR-8,5.18 µM (inactive)
same,GI50,A549,15.6 µM (inactive)
same,GI50,U-251,6.18 µM (inactive)
same,GI50,SNB-19,11.3 µM (inactive)
same,GI50,Malme-3M,12.2 µM (inactive)
same,GI50,SW-620,5.32 µM (inactive)
same,GI50,OVCAR-5,17.9 µM (inactive)
same,GI50,HCT-15,3.69 µM
same,GI50,KM-20L2,3.6 µM (inactive)
same,GI50,HCT-116,5.01 µM (inactive)
same,GI50,EKVX,16.4 µM (inactive)
same,GI50,HOP-18,9.68 µM (inactive)
same,GI50,NCI-H522,3.89 µM (inactive)
same,GI50,SF-539,6.15 µM (inactive)
same,GI50,SK-MEL-2,4.08 µM (inactive)
same,GI50,HL-60,3.78 µM (inactive)
same,GI50,CCRF-CEM,3.93 µM (inactive)
same,GI50,DMS-114,13.7 µM (inactive)
same,GI50,LXFL 529,7.57 µM (inactive)
same,GI50,SF-295,10.6 µM (inactive)
same,GI50,CAKI-1,6.21 µM (inactive)
same,GI50,COLO 205,5.6 µM (inactive)
same,GI50,UO-31,5.16 µM (inactive)
same,GI50,DMS-273,3.82 µM (inactive)
same,GI50,UACC-257,8.09 µM (inactive)
same,GI50,786-0,8.51 µM (inactive)
